According to patent US20210220331A1, “INHIBITORS OF IRES-MEDIATED PROTEIN SYNTHESIS” (The Regents of the University of California, priority 2016, published 2021):

Experiments:
hnRNP A1 [1] = molecular target: T1, hnRNP A1 (Homo sapiens, UniProt P09651); assay: Photo-cross-linked inhibitor bead binding assay; details: vs control beads, anti-GST immunoblot
T1 construct: pGEX-2T/hnRNP A1 (full length hnRNP A1) and pGEX-2T/UP1 GST fusions; made in house; host or cells: HEK293 cells
Experimental: (§1) Photo-cross-linked C11 and IRES-J007 beads were prepared as previously described (25). Activated Sepharose beads were washed three times with 1 mM aqueous HCl followed by coupling solution (100 mM NaHCO3 and 50% dioxane mixture). A solution of photoaffinity linker in coupling solution was subsequently added to the beads and incubated at 37° C. for 2 h. After washing five times with coupling solution the beads were blocked and placed in a spin column and washed three times with water and methanol. The beads were subsequently irradiated in a UV cross-linker at 365 nm (4 J/cm2) and washed with methanol. Purified GST-tagged native or mutant hnRNP A1 proteins were added to 20 μl of C11 or J007 cross-linked or control uncross-linked beads. After incubating at 4° C. for 24 h, the beads were washed three times and bound proteins eluted in 10% SDS-PAGE sample buffer at 100° C. for 5 min. and the eluted proteins were resolved by SDS-PAGE and immunoblotted using GST antibodies.
(§2) The configurations with the most favorable binding energies were visualized using PyMOL v1.5.6. The electrostatic surface representation of the crystal structure of UP1 is shown with RNP residues of RRM1 and RRM2 labeled in blue. In the 90°-rotated model, the inhibitor interaction pocket is shown in yellow. The inset is a close-up of C11 and IRES-J007 binding to the potential binding site on UP1. Residues predicted to interact with the inhibitors are labeled. (B) Purified GST-tagged wild-type hnRNP A1 (A1) and mutant A1 (4ΔA1) proteins harboring alanine substitutions at all four potential binding sites (120, 123,124 and 171) were added to uncross-linked, C11 and J007-cross-linked beads. Isolated wild-type (A1) and mutant (4ΔA1) proteins were resolved by SDS-PAGE and silver-stained to monitor purity (top panels). The binding of A1 to control, C11 and J007 beads was detected by immunoblotting with GST antibodies (bottom panel). (C) Inhibition of basal IRES activity in 293T cells upon treatment with C11 or IRES-J007. IRES reporter activity was assessed following 24 h treatment with 50 nM concentrations of each inhibitor as indicated. The mean and +SD are shown for three independent experiments. (D) RNA-pull down assays utilizing biotinylated cyclin D1 or c-MYC IRES RNAs of 293T cell extracts treated with the inhibitors as in FIG. 2C.
(§3) To further examine how C11 and IRES-J007 inhibit hnRNP A1 function, used in silico docking analysis was used to create a potential model for the binding of these inhibitors to UP1. […] The purified proteins were then incubated with control, C11 or J007 beads and binding analyzed by immunoblotting using anti-GST antibodies. […]

hnRNP A1 [2] = molecular target: T2, hnRNP A1 (Homo sapiens, UniProt P09651, D123A/H120A/N171A/Y124A); assay: Photo-cross-linked inhibitor bead binding assay; details: alanine substitutions at 120, 123, 124 and 171
T2 construct: pGEX-2T/hnRNP A1 (full length hnRNP A1) and pGEX-2T/UP1 GST fusions; made in house; host or cells: HEK293 cells
Experimental: as §1, §2, §3

T2 sequence (P09651 whole entry H120A/D123A/Y124A/N171A, the tested form may be a part): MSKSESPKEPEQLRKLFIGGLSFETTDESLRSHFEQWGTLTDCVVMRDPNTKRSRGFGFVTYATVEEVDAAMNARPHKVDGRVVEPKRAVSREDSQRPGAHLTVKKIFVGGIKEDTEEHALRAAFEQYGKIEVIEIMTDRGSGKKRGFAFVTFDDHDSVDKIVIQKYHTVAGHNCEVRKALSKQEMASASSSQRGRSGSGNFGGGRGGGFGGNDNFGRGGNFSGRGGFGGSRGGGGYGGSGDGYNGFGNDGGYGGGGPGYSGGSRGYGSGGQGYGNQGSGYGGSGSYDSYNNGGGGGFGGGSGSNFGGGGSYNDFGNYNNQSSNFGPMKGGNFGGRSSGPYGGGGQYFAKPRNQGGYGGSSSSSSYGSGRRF
T1 sequence (P09651 whole entry, the tested form may be a part): as the sequence (P09651 whole entry H120A/D123A/Y124A/N171A, the tested form may be a part) above, with A120H, A123D, A124Y, A171N counted along it

Row | Structure (SMILES) | binding of native GST-tagged hnRNP A1 to inhibitor-cross-linked beads (hnRNP A1 [1]) | amount of mutant hnRNP A1 (4ΔA1) bound to inhibitor beads relative to native hnRNP A1 (hnRNP A1 [2])
1 | COc1ccc(CN2C(=O)C(Cl)=C(Cl)C2=O)c(OC)c1 [Compound C11, reference compound] | bound | markedly reduced
2 | COc1ccc(CN2C(=O)c3ccccc3C2=O)c(OC)c1 [IRES-J007, 2-((2,4-Dimethoxyphenyl)methyl)isoindoline-1,3-dione] | bound | markedly reduced
